Laboratory results reported in US20080171716A1, “NUCLEIC ACID MODULATION OF TOLL-LIKE RECEPTOR-MEDIATED IMMUNE STIMULATION” (Protiva Biotherapeutics, Inc., priority 2006, published 2008).

Biological target: T1, TLR7 (Mus musculus, UniProt P58681)
T1 sequence (P58681 27-1050): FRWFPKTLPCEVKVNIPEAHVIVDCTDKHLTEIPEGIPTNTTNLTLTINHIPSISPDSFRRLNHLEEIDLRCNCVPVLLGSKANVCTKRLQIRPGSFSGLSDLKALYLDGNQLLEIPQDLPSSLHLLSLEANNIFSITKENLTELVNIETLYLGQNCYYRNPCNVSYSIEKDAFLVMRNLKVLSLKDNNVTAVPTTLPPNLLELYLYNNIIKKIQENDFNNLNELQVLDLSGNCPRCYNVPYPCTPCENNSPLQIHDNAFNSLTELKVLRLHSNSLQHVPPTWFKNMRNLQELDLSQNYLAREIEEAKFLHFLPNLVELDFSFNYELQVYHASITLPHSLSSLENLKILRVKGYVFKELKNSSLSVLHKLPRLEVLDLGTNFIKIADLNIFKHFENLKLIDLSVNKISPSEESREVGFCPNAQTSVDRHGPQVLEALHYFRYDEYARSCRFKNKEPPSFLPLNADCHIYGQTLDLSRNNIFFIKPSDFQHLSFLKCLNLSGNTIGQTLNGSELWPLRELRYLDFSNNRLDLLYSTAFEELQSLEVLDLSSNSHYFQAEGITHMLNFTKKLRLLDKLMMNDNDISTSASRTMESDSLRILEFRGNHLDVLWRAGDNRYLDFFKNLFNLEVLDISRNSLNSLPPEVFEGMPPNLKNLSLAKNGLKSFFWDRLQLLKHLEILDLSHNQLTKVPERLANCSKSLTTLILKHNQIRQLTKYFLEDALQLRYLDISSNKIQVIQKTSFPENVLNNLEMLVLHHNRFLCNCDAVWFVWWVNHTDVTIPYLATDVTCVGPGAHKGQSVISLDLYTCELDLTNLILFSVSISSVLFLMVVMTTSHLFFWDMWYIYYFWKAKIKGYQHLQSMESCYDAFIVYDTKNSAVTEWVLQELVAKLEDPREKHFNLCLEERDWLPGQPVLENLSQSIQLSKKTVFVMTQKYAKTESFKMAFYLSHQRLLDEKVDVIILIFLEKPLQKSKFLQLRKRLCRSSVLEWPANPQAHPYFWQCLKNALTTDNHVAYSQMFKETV
Assay: Immunostimulatory ssRNA-induced IFN-α/IL-6 production in murine Flt3L-derived dendritic cells
Type: cell-based
Set-up: Femurs and tibiae of female Balb/C mice were isolated; endogenous in cells; host or cells: Flt3L-derived dendritic cells cultured from bone marrow of female Balb/C mice
Conditions: murine Flt3L DC; 1:1 molar ratio; 24 h
Description: Lipid Encapsulation of RNA and ODN. RNA or ODN were encapsulated in liposomes by a process of spontaneous vesicle formation as described in Judge et al., supra, and Jeffs et al., Pharm. Res., 22:362-372 (2005).
Flt3L-derived dendritic cells (DC) were generated as described in Gilliet et al., J. Exp. Med., 195:953-958 (2002), using 100 ng/ml murine Flt3-ligand (Peprotech) supplemented media. Femurs and tibiae of female Balb/C mice were isolated and rinsed in sterile PBS. The ends of bones were cut and marrow harvested in complete media (RPMI 1640, 10% heat inactivated FBS, 1% penicillin/streptomycin, 2 mM L-glutamine, 1 mM sodium pyruvate, 25 mM HEPES, 50 μM 2-mercaptoethanol). Bone marrow cells were passed through a 70 μm strainer and centrifuged at 1000 rpm for 7 min. and resuspended in complete media supplemented with 100 ng/ml murine Flt3L to 2×10^6 cells/ml. 2 ml of cells were seeded in 6-well plates and 1 ml fresh media was added every two to three days. On day 9 of culture, non-adherent cells were washed in complete media and plated into 96-well plates at concentrations ranging from 0.5 to 2.5×10^5 cells/well. […]
Cytokine ELISA. All cytokines were quantified using sandwich ELISA kits according to the manufacturer's instructions. […]

In the case of “polyUmod21: 2′OMe-uridine homopolymer of 21 nucleotides in length (UUUUUUUUUUUUUUUUUUUUU; all 2'-O-methyl, backbone not given here)”, the “IFN-α production induced by immunostimulatory ssRNA when co-administered” value is reported as “completely abrogated measurable” and the “IL-6 production induced by immunostimulatory ssRNA when co-administered” value is reported as “completely abrogated measurable”.
